Data as given in US10000474B2, “Histone deacetylase inhibitors and uses thereof” (MUSC FOUNDATION FOR RESEARCH DEVELOPMENT, priority 2014, dated 2018).
Counter-ions that a name gives are not always drawn.

Tests used:
Assay type in all cases: biochemical
Settings in all cases: test concentration not given; average of triplicate
[1] = molecular target: T1, Recombinant human HDAC2 (Homo sapiens, UniProt Q92769); assay: HDAC inhibitory assay, HDAC2 (Boc-Lys(Ac)-AMC substrate)
T1 construct: purchased BPS Biosciences
Experimental: (§1) The compounds of Examples 1-12 and 14-16 were evaluated for their ability to act as inhibitors of human HDAC. The compound of Example 13 was not tested. Recombinant human HDAC1, HDAC2, HDAC3/NcoR2, HDAC5, HDAC6, HDAC8, HDAC9, HDAC10 and HDAC11 were purchased from BPS Biosciences. Recombinant human HDAC4 and HDAC7 were purchased from Millipore. The substrate Boc-Lys(Ac)-AMC and Boc-Lys(Tfa)-AMC were purchased from Bachem. The substrate Ac-RHK(Ac)K(Ac)-AMC was purchased from Enzo Life Sciences. Due to the different specific activities of each isoform, different amount of enzyme was used in each isoform screening assay. In these assays, trichostatin A (TSA), suberanilohydroxamic acid and diphenylacetohydroxamic acid (DPAHA) were employed as positive controls. All determinations were carried out in triplicate, and reported values were the average of these determinations, which in no case varied by more than 5%.
(§2) Then 25 μl of the Boc-Lys(Ac)-AMC substrate (50 μM final concentration) was added and incubated at 37° C. for 30-60 min, and followed by adding 50 μl of developer (1 mg/ml trypsin and 1 μM TSA). The last step was reading the samples in a SpectraMax M5 plate reader (Molecular Devices) at an excitation wavelength of 360 nm and an emission wavelength of 460 nm.

[2] = molecular target: T2, Recombinant human HDAC1 (Homo sapiens, UniProt Q13547); assay: HDAC inhibitory assay, HDAC1 (Boc-Lys(Ac)-AMC substrate)
T2 construct: purchased BPS Biosciences
Experimental: as §1, §2

[3] = molecular target: T3, Recombinant human HDAC3/NcoR2 (Homo sapiens, UniProt O15379); assay: HDAC inhibitory assay, HDAC3 (Boc-Lys(Ac)-AMC substrate)
T3 construct: purchased BPS Biosciences
Experimental: as §1, §2

[4] = molecular target: T4, Recombinant human HDAC5 (Homo sapiens, UniProt Q9UQL6); assay: HDAC inhibitory assay, HDAC5 (Boc-Lys(Tfa)-AMC substrate)
T4 construct: purchased BPS Biosciences
Experimental: as §1
(§3) For evaluating the inhibition of class IIa HDACs (HDAC4, HDAC5, HDAC7 and HDAC9) and class IV HDAC (HDAC11), 10 μl of test samples were first incubated with 1 ng HDAC4 (specific activity=15400 pmol/min/μg), 5 ng HDAC5 (specific activity=2521 pmol/min/μg), 1 ng HDAC7 (specific activity=26340 pmol/min/μg), 5 ng HDAC9 (specific activity=3000 pmol/min/μg), and 500 ng HDAC11 (specific activity=1.8 pmol/min/μg) respectively. Then 25 μl of the Boc-Lys(Tfa)-AMC substrate (50 μM final concentration) was added and incubated at 37° C. for 30-60 min, and followed by adding 50 μl of developer. The last step was to read the samples in a SpectraMax M5 plate reader (Molecular Devices) at an excitation wavelength of 360 nm and an emission wavelength of 460 nm.

[5] = molecular target: T5, Recombinant human HDAC9 (Homo sapiens, UniProt Q9UKV0); assay: HDAC inhibitory assay, HDAC9 (Boc-Lys(Tfa)-AMC substrate)
T5 construct: purchased BPS Biosciences
Experimental: as §1, §3

[6] = molecular target: T6, Recombinant human HDAC8 (Homo sapiens, UniProt Q9BY41); assay: HDAC inhibitory assay, HDAC8 (Ac-RHK(Ac)K(Ac)-AMC substrate)
T6 construct: purchased BPS Biosciences
T6 sequence (Q9BY41 1-377): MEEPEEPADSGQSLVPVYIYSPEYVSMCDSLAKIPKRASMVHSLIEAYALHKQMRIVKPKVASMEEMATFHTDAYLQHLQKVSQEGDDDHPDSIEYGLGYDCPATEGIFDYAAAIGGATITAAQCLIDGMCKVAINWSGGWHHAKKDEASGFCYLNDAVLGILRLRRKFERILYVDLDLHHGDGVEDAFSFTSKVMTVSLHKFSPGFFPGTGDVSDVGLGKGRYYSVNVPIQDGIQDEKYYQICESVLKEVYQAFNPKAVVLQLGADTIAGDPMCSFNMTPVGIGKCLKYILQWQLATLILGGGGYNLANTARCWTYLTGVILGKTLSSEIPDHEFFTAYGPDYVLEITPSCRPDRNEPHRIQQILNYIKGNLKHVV
Experimental: as §1
For evaluating the inhibition of HDAC8, 10 μl of test samples were first incubated with 25 ng HDAC8 (specific activity 298 pmol/min/μg). Then 25 μl of the fluorogenic peptide from p53 residues 379-382 (Ac-RHK(Ac)K(Ac)-AMC, 50 μM final concentration) was added and incubated at 37° C. for 30-60 min, and followed by adding 50 μl of developer (1 mg/ml trypsin and 1 uM TSA). The last step was to read the samples in a SpectraMax M5 plate reader (Molecular Devices) at an excitation wavelength of 360 nm and an emission wavelength of 460 nm.

[7] = molecular target: T7, Recombinant human HDAC10 (Homo sapiens, UniProt Q969S8); assay: HDAC inhibitory assay, HDAC10 (Boc-Lys(Ac)-AMC substrate)
T7 construct: purchased BPS Biosciences
T7 sequence (Q969S8 1-669): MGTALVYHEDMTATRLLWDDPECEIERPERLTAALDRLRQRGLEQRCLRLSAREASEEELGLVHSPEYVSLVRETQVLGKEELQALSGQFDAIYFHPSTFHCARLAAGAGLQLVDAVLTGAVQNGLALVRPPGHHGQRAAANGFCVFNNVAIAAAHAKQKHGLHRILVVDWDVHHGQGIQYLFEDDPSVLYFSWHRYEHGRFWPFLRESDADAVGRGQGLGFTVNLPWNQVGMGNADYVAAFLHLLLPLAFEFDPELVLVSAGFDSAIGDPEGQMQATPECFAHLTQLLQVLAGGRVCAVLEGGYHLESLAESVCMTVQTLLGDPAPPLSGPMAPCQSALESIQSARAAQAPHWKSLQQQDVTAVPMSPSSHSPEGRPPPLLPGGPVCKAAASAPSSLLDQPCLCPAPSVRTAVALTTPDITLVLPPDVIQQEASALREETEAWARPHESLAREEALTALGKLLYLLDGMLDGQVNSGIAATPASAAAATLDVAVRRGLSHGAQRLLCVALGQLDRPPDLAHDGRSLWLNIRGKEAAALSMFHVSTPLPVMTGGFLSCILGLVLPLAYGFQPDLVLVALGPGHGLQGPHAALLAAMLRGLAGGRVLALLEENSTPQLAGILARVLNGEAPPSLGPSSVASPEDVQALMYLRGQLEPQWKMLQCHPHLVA
Experimental: as §1, §2

T4 sequence (Q9UQL6 whole entry): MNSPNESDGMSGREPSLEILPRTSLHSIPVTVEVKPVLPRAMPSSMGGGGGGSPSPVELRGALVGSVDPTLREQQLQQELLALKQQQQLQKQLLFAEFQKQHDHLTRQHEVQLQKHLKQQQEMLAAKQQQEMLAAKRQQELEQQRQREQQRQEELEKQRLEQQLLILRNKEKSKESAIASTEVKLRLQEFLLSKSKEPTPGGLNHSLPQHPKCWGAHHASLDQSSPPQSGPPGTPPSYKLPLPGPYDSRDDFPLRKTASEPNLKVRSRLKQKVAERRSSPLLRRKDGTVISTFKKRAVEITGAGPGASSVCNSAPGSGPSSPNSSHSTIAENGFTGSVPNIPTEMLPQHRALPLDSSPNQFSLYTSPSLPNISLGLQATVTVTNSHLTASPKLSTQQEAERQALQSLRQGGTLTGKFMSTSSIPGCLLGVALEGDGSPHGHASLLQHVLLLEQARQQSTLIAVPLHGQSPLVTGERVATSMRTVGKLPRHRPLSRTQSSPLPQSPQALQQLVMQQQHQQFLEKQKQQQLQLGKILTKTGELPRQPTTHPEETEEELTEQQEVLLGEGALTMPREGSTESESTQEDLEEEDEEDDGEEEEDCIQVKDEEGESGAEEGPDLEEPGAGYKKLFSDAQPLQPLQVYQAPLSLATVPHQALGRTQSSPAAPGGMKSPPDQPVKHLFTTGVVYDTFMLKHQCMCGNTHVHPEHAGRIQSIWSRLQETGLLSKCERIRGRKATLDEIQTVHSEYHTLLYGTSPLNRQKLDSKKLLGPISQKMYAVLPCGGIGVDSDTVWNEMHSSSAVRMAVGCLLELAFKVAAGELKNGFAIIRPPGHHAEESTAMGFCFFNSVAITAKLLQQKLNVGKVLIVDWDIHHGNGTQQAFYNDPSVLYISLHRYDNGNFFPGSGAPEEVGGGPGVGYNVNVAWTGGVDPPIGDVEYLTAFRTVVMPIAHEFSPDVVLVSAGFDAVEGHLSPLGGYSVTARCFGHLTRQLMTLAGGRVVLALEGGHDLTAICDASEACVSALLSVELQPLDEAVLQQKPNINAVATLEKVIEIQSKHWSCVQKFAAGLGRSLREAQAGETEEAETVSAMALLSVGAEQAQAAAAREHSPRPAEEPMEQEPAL
T2 sequence (Q13547 whole entry): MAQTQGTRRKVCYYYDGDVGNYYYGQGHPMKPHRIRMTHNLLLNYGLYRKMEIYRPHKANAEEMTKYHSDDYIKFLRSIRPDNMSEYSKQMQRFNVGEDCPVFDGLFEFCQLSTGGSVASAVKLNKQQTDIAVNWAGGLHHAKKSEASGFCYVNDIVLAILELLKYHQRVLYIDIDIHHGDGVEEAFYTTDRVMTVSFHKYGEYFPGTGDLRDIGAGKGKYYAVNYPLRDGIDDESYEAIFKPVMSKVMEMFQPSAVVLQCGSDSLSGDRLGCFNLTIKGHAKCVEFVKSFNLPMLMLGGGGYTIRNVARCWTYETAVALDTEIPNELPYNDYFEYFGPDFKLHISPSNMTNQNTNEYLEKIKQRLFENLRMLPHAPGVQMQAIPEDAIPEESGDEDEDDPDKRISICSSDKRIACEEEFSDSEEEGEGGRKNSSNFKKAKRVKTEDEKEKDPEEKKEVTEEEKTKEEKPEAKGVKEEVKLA
T1 sequence (Q92769 whole entry): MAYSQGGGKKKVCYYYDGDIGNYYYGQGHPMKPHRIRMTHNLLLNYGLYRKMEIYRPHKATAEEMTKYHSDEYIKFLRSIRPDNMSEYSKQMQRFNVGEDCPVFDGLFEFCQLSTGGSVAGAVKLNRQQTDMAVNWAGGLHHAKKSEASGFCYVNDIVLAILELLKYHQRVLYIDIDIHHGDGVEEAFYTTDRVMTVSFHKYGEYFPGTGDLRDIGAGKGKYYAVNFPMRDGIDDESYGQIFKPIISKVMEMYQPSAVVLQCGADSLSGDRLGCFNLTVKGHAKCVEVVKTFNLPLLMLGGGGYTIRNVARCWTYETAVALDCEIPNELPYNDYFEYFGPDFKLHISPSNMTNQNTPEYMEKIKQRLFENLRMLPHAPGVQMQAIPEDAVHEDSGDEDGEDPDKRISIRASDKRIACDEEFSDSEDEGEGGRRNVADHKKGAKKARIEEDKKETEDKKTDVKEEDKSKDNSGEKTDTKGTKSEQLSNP
T3 sequence (O15379 whole entry): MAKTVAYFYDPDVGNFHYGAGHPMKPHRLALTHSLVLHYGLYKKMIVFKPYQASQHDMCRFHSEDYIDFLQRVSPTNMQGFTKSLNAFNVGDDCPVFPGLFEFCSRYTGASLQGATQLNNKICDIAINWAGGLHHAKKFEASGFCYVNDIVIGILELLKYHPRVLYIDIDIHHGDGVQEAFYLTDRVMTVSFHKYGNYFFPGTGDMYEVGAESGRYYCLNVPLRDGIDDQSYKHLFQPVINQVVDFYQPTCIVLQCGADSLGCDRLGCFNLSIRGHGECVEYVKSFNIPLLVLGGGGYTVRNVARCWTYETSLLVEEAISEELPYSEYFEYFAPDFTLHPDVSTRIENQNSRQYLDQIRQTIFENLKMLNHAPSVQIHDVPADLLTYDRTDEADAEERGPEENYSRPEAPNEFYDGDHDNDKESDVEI
T3 sequence (Q9Y618 395-489 partner limits assumed): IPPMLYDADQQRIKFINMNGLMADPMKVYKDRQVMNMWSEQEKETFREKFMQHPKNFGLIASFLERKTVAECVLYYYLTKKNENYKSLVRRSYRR
T5 sequence (Q9UKV0 whole entry): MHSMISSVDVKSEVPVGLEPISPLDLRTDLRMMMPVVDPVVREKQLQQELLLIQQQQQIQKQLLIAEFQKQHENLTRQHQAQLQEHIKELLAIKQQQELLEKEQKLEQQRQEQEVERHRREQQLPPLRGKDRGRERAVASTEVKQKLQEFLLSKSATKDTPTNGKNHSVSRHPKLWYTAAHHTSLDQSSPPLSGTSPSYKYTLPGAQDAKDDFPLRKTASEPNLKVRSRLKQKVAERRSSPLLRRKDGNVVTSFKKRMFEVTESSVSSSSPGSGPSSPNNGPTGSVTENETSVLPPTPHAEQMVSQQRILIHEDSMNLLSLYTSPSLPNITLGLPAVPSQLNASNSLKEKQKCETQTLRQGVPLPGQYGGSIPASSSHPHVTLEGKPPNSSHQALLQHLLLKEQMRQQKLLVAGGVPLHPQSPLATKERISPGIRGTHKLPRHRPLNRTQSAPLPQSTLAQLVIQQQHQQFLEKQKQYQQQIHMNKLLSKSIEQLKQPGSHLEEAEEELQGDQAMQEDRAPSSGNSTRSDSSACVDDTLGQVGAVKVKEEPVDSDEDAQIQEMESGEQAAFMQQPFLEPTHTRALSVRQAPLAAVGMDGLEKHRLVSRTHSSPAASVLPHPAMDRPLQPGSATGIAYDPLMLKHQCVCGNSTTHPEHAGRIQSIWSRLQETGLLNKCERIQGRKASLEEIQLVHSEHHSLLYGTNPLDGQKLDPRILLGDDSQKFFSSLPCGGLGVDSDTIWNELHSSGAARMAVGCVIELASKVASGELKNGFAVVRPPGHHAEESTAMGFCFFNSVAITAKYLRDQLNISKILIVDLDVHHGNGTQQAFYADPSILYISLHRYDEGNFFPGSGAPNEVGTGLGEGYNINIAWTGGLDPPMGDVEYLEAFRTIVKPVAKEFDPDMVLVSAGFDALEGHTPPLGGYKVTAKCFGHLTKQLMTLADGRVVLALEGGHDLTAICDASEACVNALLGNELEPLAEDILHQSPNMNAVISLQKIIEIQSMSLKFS

SMILES | HDAC 2 inhibitory activity [1] [%] | HDAC 1 inhibitory activity [2] [%] | HDAC 3 inhibitory activity [3] [%] | HDAC 5 inhibitory activity [4] [%] | HDAC 9 inhibitory activity [5] [%] | HDAC 8 inhibitory activity [6] [%] | HDAC 10 inhibitory activity [7] [%]
O=C(Nc1ccccc1)c1coc(-c2ccccc2O)n1 [Example 1, 2-(2-Hydroxyphenyl)-N-phenyloxazole-4-carboxamide] | 29.5 | 62.5 | 22.5 | 9.3 | 20.5 | 0 | 48.8
O=C(NC(c1ccccc1)c1ccccc1)c1coc(-c2ccccc2O)n1 [Example 2, N-Benzhydryl-2-(2-hydroxyphenyl)oxazole-4-carboxamide] | 54.1 | 68.0 | 37.8 | 14.9 | 33.3 | 23.3 | 47.1
O=C(NCC(c1ccccc1)c1ccccc1)c1coc(-c2ccccc2O)n1 [Example 3, N-(2,2-Diphenylethyl)-2-(2-hydroxyphenyl)oxazole-4-carboxamide] | 34.8 | 43.9 | 23.7 | 0 | 21.6 | 16.7 | 35.7
O=C(NCCC(c1ccccc1)c1ccccc1)c1coc(-c2ccccc2O)n1 [Example 4, N-(3,3-Diphenylpropyl)-2-(2-hydroxyphenyl)oxazole-4-carboxamide] | 28.7 | 35.9 | 37.5 | 11.3 | 28.2 | 7.2 | 69.8
O=C(Nc1ccc(-c2ccccc2)cc1)c1coc(-c2ccccc2O)n1 [Example 5, N-([1,1′-Biphenyl]-4-yl)-2-(2-hydroxyphenyl)oxazole-4-carboxamide] | 31.9 | 62.2 | 30.2 | 0 | 32.4 | 7.2 | 58.6
O=C(NCc1ccc(-c2ccccc2)cc1)c1coc(-c2ccccc2O)n1 [Example 6, N-([1,1′-Biphenyl]-4-ylmethyl)-2-(2-hydroxyphenyl)oxazole-4-carboxamide] | 52.2 | 61.4 | 40.1 | 9.2 | 20.8 | 17.9 | 48.7
O=C(NCc1cccc2ccccc12)c1coc(-c2ccccc2O)n1 [Example 7, 2-(2-Hydroxyphenyl)-N-(naphthalen-1-ylmethyl)oxazole-4-carboxamide] | 45.2 | 47.8 | 32.3 | 3.2 | 15.5 | 10.6 | 44.5

Continued, values first:

HDAC 2 inhibitory activity [1] [%] | HDAC 1 inhibitory activity [2] [%] | HDAC 3 inhibitory activity [3] [%] | HDAC 5 inhibitory activity [4] [%] | HDAC 9 inhibitory activity [5] [%] | HDAC 8 inhibitory activity [6] [%] | HDAC 10 inhibitory activity [7] [%] | SMILES
36.0 | 41.7 | 18.9 | 0 | 18.4 | 7.7 | 44.8 | O=C(NCCc1c[nH]c2ccccc12)c1coc(-c2ccccc2O)n1 [Example 8, N-(2-(1H-Indol-3-yl)ethyl)-2-(2-hydroxyphenyl)oxazole-4-carboxamide]
25.4 | 35.2 | 11.0 | 10.3 | 16.4 | 9.6 | 32.1 | O=C(NCCCCN1C(=O)c2ccccc2C1=O)c1coc(-c2ccccc2O)n1 [Example 9, N-(4-(1,3-Dioxoisoindolin-2-yl)butyl)-2-(2-hydroxyphenyl)oxazole-4-carboxamide]
0 | 27.2 | 4.0 | 1.4 | 9.0 | 0 | 56.5 | O=C(NCCCCNC(=O)C(c1ccccc1)c1ccccc1)c1coc(-c2ccccc2O)n1 [Example 10, N-(4-(2,2-Diphenylacetamido)butyl)-2-(2-hydroxyphenyl)oxazole-4-carboxamide]
1.3 | 43.3 | 3.7 | 43.5 | 70.2 | 0 | 91.2 | O=C(NCCCCNC(=S)NCCC(c1ccccc1)c1ccccc1)c1coc(-c2ccccc2O)n1 [Example 11, N-(4-(3-(3,3-Diphenylpropyl)thioureido)butyl)-2-(2-hydroxyphenyl)oxazole-4-carboxamide]
19.7 | 32.2 | 18.1 | 6.9 | 16.4 | 14.0 | 26.2 | O=C(NCCCCNCCC(c1ccccc1)c1ccccc1)c1coc(-c2ccccc2O)n1 [Example 12, N-(4-((3,3-Diphenylpropyl)amino)butyl)-2-(2-hydroxyphenyl)oxazole-4-carboxamide hydrochloride]
56.5 | 70.1 | 39.7 | 12.6 | 26.3 | 20.0 | 47.2 | O=C(O)c1ccc(CNC(=O)c2coc(-c3ccccc3O)n2)cc1 [Example 14, 4-((2-(2-Hydroxyphenyl)oxazole-4-carboxamido)methyl)benzoic acid]
